Assay results reported in patent EP0938474B1, “CYCLOPROPYLINDOLE COMPOUNDS AND THEIR USE AS PRODRUGS” (AUCKLAND UNISERVICES LIMITED, priority 1996, dated 1998).
pIC50: −log10 of the molar value.

Legend:
[1] = background statement, test system not given; cited from earlier work
[2] = system: human ovarian NR- (wild-type) line SKOV3; test: Cytotoxicity in untransfected control cells (NR-), nitroreductase activation test; type: cell-based; details: SK-OV-3, IC50, unit inferred, read-out: Human ovarian lines NR-
Source text: (§1) Compounds of the invention were further tested against human cell lines (NR+ in Table 3) transfected with a gene encoding a bacterial nitroreductase (NR) enzyme to test for activation of compounds of the invention with NR. Untransfected control cells (NR- in Table 3) were used as controls. The cells used were the human colon NR-(wild-type) line WIDR and its transfected NR+ counterpart WC14.10; and the human ovarian NR- (wild-type) line SKOV3 together with its NR+ (transfected) counterpart SC3.2. The results are shown in Table 3, which also indicates the ratios of IC50s. These are intra-experiment values, and may differ slightly from those calculated from the given NR- and NR+ values.

[3] = system: human colon NR-(wild-type) line WIDR; test: as above; type: cell-based; details: IC50, unit inferred, read-out: Human colon lines NR-
Source text: as §1

SC3.2 = test: Cytotoxicity in cells transfected with bacterial nitroreductase (NR+); type: cell-based; details: Homo sapiens, SK-OV-3; SC3.2 (NR+ transfected counterpart of SKOV3); IC50, unit inferred; read-out: Human ovarian lines NR+
Source text: as §1

WC14.10 = test: as above; type: cell-based; details: Homo sapiens; WC14.10 (NR+ transfected counterpart of WIDR); IC50, unit inferred; read-out: Human colon lines NR+
Source text: as §1

Row | SMILES | IC50's [1] | pIC50 [2] | pIC50 [3] | pIC50 (SC3.2) | pIC50 (WC14.10)
1 | COc1c(O)c2c(c3cc(C(=O)N4CCc5c4c(O)c(OC)c4[nH]c(C(=O)N6CC7CC78C6=CC(=O)c6[nH]cc(C)c68)cc54)[nH]c13)CCN2C(N)=O (stereo not shown) [CC-1065] | low pM range |  |  |  | 
2 | CCCC(=O)Nc1cc(/C=C/C(=O)N2CC(CCl)c3c2cc([N+](=O)[O-])c2ccccc32)n(C)c1 (stereo not shown) [14i, 3-[(E)-4-(butyrylamino)-1-methyl-2-pyrroleacryloyl]-1-(chloromethyl)-5-nitro-1,2-dihydro-3H-benz [e] indole] |  | 5.37 | 5.66 | 6.41 | 6.22
3 | COC(=O)c1cc2c3c(cc([N+](=O)[O-])c2[nH]1)N(C(=O)c1cc2cc(OC)c(OC)c(OC)c2[nH]1)CC3CCl (stereo not shown) [compound 31, methyl 1-(chloromethyl)-5-nitro-3-[(5,6,7-trimethoxyindol-2-yl)carbonyl]-1,2-dihydro-3H-pyrrolo[3,2-e]indole-7-carboxylate] |  | 7.22 | 6.40 | 8.30 | 8.00
4 | COc1cccc(/C=C/C(=O)N2CC(CCl)c3c2cc([N+](=O)[O-])c2ccccc32)c1 (stereo not shown) [14l, 1-(chloromethyl)-3-[(E)-3-methoxycinnamoyl]-5-nitro-1,2-dihydro-3H-benz[e]iadole] |  | 6.89 | 6.85 | 7.40 | 7.10
5 | COc1cc2cc(C(=O)N3CC(CCl)c4c3cc(NC(=O)OCc3ccc([N+](=O)[O-])cc3)c3ccccc43)[nH]c2c(OC)c1OC (stereo not shown) [15r, 1-(chloromethyl)-5-[(4-nitrobenzyloxycarbonyl)amino]-3-[(5,6,7-trimethoxyindol-2-yl)carbonyl]-1,2 - dihydro-3H-benz[e] indole] |  | 7.21 | 6.41 | 8.27 | 7.92
6 | COC(=O)c1cc2c3c(cc(NC(=O)OCc4ccc([N+](=O)[O-])cc4)c2[nH]1)N(C(=O)c1cc2cc(OC)c(OC)c(OC)c2[nH]1)CC3CCl (stereo not shown) [32d, methyl 1-(chloromethyl) -5-[(4-nitrobenzyloxycarbonyl) -amino] -3-[(5,6,7-trimethoxyindol-2-yl)carbonyl]-1,2-dihydro-3H-pyrrolo[3,2-e]indole-7-carboxylate] |  | 5.96 | 6.31 | 6.57 | 6.59
7 | COc1cc2cc(C(=O)N3CC(CCl)c4c3cc([N+](=O)[O-])c3ccccc43)[nH]c2c(OC)c1OC (racemic) [14a] |  | 5.80 | 5.89 | 6.85 | 6.42
